According to patent US20040058901A1, “Crystalline ethanolate solvate form of zafirluskast process for manufacture and pharmaceutical compositions thereof” (priority 2000, published 2004):
“And” between values parts separate entries of the source, which are not always exact repeats. Equal values may be shown once. “Also recorded” adds a separate entry of the source. Read-outs that look alike come from different tables or passages of the source. Values belong to the compound of their own block, whether it stands above or below them.

Tests used:
[1] = cited from earlier work; for physical stability of the solid form: as disclosed in U.S. Pat. No. 5,993,859
[2] = as disclosed in U.S. Pat. No. 5,993,859; cited from earlier work
[3] = Physical stability of zafirlukast ethanolate and its compositions; format: physicochemical
[4] = Hygroscopicity comparison in controlled humidity chambers, Karl Fisher water content; format: physicochemical; conditions: compared with zafirlukast Form A; 25° C./60% relative humidity and 40° C./75% relative humidity, two weeks
Procedure: Hygroscopicities of zafirlukast ethanolate and zafirlukast Form A were compared by maintaining samples in controlled humidity chambers at 25° C. under 60% relative humidity and at 40° C. under 75% relative humidity for a period of two weeks, followed by Karl Fisher analysis of water content.

[5] = Drying of zafirlukast ethanolate in an air oven (weight loss, physical properties); format: physicochemical; conditions: 105±1° C., 4 hours
Procedure: Preferably, the methods further comprise the step of drying the crystals of zafirlukast ethanolate. Effective drying methods include vacuum oven drying, air oven or simple vacuum desiccator drying. The ethanolate is stable at ambient temperature and will tolerate vacuum drying. When vacuum oven drying is used, one must exercise caution to avoid breaking the ethanolate. Preferred drying conditions for the ethanol solvate are about 30 to about 70° C. vacuum oven drying and are about 30 to about 105° C. at air oven drying.
5.0 g of zafirlukast Forms A, B or X, prepared according to U.S. Pat. No. 5,993,859 or zafirlukast, prepared according to J. Med. Chem., v. 33, 1781 (1990) were dissolved in hot acetone (50 mL). The solution was concentrated under reduced pressure to the volume of about 20 mL, heated to reflux and absolute ethanol (100 mL) was added to the solution. Acetone was distilled off from the stirred mixture through a 10 cm Vigreux column equipped with a distillation head until the temperature of vapor in the head of the column reached 78° C. The resulting mixture was kept overnight at the room temperature. The precipitated crystals were filtered off, washed on filter with ice cold absolute ethanol (2×5 mL) and dried under reduced pressure at 60° C. (water bath) to give crystalline zafirlukast ethanolate with mp 130-132° C.

[6] = high relative humidity and elevated temperatures

SMILES: COc1cc(C(=O)NS(=O)(=O)c2ccccc2C)ccc1Cc1cn(C)c2ccc(NC(=O)OC3CCCC3)cc12 [Form A, cyclopentyl 3-[2-methoxy-4-[(o-tolylsulfonyl)carbamoyl]benzyl]-1-methylindole-5-carbamate]
form conversion under high relative humidity and elevated temperatures [1, 6]: conversion of form A into form B occurs | bioavailability [2]: relatively good bioavailability

SMILES: COc1cc(C(=O)NS(=O)(=O)c2ccccc2C)ccc1Cc1cn(C)c2ccc(NC(=O)OC3CCCC3)cc12 [Form B, cyclopentyl 3-[2-methoxy-4-[(o-tolylsulfonyl)carbamoyl]benzyl]-1-methylindole-5-carbamate]
physical stability of the solid form [1]: physically unstable

SMILES: COc1cc(C(=O)NS(=O)(=O)c2ccccc2C)ccc1Cc1cn(C)c2ccc(NC(=O)OC3CCCC3)cc12 [Form X, cyclopentyl 3-[2-methoxy-4-[(o-tolylsulfonyl)carbamoyl]benzyl]-1-methylindole-5-carbamate]
physical stability of the solid form [1]: physically stable | bioavailability [2]: relatively poor bioavailability

physical stability of the solid form [3]: relatively stable | stability at ambient temperature ([3]; ambient temperature): stable | stability under high relative humidity and elevated temperatures [3, 6]: stable | weight loss on drying [5]: < 1% and 0.86%
SMILES: CCO.COc1cc(C(=O)NS(=O)(=O)c2ccccc2C)ccc1Cc1cn(C)c2ccc(NC(=O)OC3CCCC3)cc12 [zafirlukast ethanolate]
hygroscopicity [4]: less hygroscopic than other known forms of zafirlukast; also recorded: less hygroscopic than Form A of zafirlukast | change of physical properties on drying (mp, 1H NMR, infra-red spectra) [5]: without substantial change of physical properties
